Results taken from article PMC6901909, “Synergy Pattern of Short Cationic Antimicrobial Peptides Against Multidrug-Resistant Pseudomonas aeruginosa” (Frontiers in Microbiology, 2019).
In brackets after ≈: the same amount, converted by molar mass. Where two headings read alike, the source gives them in different places. Bridge positions count the residues as written; N and C are the ends. Square brackets hold non-standard residues; d marks the D form. Peptide text beside a SMILES is read from it. * marks the point of attachment. X1 = CC[C@H](C)CCCCC(=O)*; Dab = NCC[C@H](N)C(=O)O

Legend:
MDR-PA253 = format: cell-based, Pseudomonas aeruginosa; conditions: peptide + polymyxin B; checkerboard; strain comparison (Table 7)
Protocol: (§1) The checkerboard assay was used to determine the fractional inhibitory concentrations (FICs), following the protocol described in Koneman’s Color Atlas and Textbook of Diagnostic Microbiology ([Winn et al., 2006]). Briefly, combinations of peptides and antibiotics were prepared in 96-well plates (polypropylene, Corning) in a twofold dilution series. After the addition of a log-phase bacterial inoculum of 2–5 × 10^5 CFU/ml, plates were incubated at 37°C for 18 h. The FICs were determined by visual inspection and the effects of the combinations were determined using the FICs. The FIC was computed by adding two partial FIC values, FICA—the MIC of drug A, tested in combination with drug B divided by the MIC of drug A, tested alone and FICB—the MIC of drug B, tested in combination with drug A divided by the MIC of drug B, tested alone [FIC = FICA + FICB = (MICAB/MICA) + (MICBA/MICB), where MICA and MICB are the MICs of drugs A and B alone, respectively, and MICAB and MICBA are the MIC concentrations of the drugs in combination]. […]

MDR-PA919 = format: cell-based, Pseudomonas aeruginosa; conditions: peptide + polymyxin B; checkerboard; strain comparison (Table 7)
Protocol: as §1

[1] = tested on: MDR isolate of P. aeruginosa (PA 910); conditions: checkerboard, MHb
Protocol: The checkerboard assay was used to determine the fractional inhibitory concentrations (FICs), following the protocol described in Koneman’s Color Atlas and Textbook of Diagnostic Microbiology ([Winn et al., 2006]). Briefly, combinations of peptides and antibiotics were prepared in 96-well plates (polypropylene, Corning) in a twofold dilution series. After the addition of a log-phase bacterial inoculum of 2–5 × 10^5 CFU/ml, plates were incubated at 37°C for 18 h. The FICs were determined by visual inspection and the effects of the combinations were determined using the FICs. The FIC was computed by adding two partial FIC values, FICA—the MIC of drug A, tested in combination with drug B divided by the MIC of drug A, tested alone and FICB—the MIC of drug B, tested in combination with drug A divided by the MIC of drug B, tested alone [FIC = FICA + FICB = (MICAB/MICA) + (MICBA/MICB), where MICA and MICB are the MICs of drugs A and B alone, respectively, and MICAB and MICBA are the MIC concentrations of the drugs in combination]. Here we use the European Committee for Antimicrobial Susceptibility Testing (EUCAST) definition, which is very similar to the definition provided by [Odds, 2003], except Odds define additive effects when FIC values are between 0.5 and 1 ([European Committee for Antimicrobial Susceptibility Testing [EUCAST] of the European Society of Clinical Microbiology and Infectious Diseases [ESCMID], 2000]; [Odds, 2003]). The combination of peptide (drug A) and antibiotics (drug B) was defined as synergistic if the FIC was ≤ 0.5, indifferent if the FIC was > 0.5 but ≤ 4.0 and antagonistic if the FIC was > 4.0.

MDR P. aeruginosa PA 919 = test: microbe, parasite or virus in culture; format: cell-based, Pseudomonas aeruginosa; conditions: microdilution, Mueller-Hinton broth, 18 h at 37°C, read visually; for MIC: conventional antibiotics, 2–5 10^5 CFU/ml, at least three repeats (n = 3)
Summary of the method: (§2)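 Clinical and municipal waste-water MDR isolates were tested by broth microdilution in Mueller-Hinton broth with twofold serial dilutions at 2–5 10^5 CFU/ml. Plates were incubated 18 h at 37°C in polypropylene plates. MIC was read visually.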

P. aeruginosa PA01-wt = test: microbe, parasite or virus in culture; format: cell-based, Pseudomonas aeruginosa; conditions: microdilution, Mueller-Hinton broth, 18 h at 37°C, read visually; for MIC: conventional antibiotics, 2–5 10^5 CFU/ml, at least three repeats (n = 3)
MDR P. aeruginosa PA253 = test: microbe, parasite or virus in culture; format: cell-based, Pseudomonas aeruginosa; conditions: microdilution, Mueller-Hinton broth, 18 h at 37°C, read visually; for MIC: conventional antibiotics, 2–5 10^5 CFU/ml, at least three repeats (n = 3)
Summary of the method: as §2

MDR P. aeruginosa PA 910 = test: microbe, parasite or virus in culture; format: cell-based, Pseudomonas aeruginosa
Summary of the method: as §2

MDR P. aeruginosa PA 927 = test: microbe, parasite or virus in culture; format: cell-based, Pseudomonas aeruginosa; conditions: conventional antibiotics, microdilution, Mueller-Hinton broth, 2–5 10^5 CFU/ml, 18 h at 37°C, read visually, at least three repeats (n = 3)
Summary of the method: as §2

MDR P. aeruginosa PA 923 = test: microbe, parasite or virus in culture; format: cell-based, Pseudomonas aeruginosa; conditions: conventional antibiotics, microdilution, Mueller-Hinton broth, 2–5 10^5 CFU/ml, 18 h at 37°C, read visually, at least three repeats (n = 3)
Summary of the method: as §2

MDR P. aeruginosa PA 915 = test: microbe, parasite or virus in culture; format: cell-based, Pseudomonas aeruginosa; conditions: conventional antibiotics, microdilution, Mueller-Hinton broth, 2–5 10^5 CFU/ml, 18 h at 37°C, read visually, at least three repeats (n = 3)
Summary of the method: as §2

[2] = Pseudomonas aeruginosa, 18 h, antibiotic alone, as listed in the FIC table, read-out: MIC against PA910 in μM (antibiotics, head of Table 4)
[3] = Pseudomonas aeruginosa, conventional antibiotics, microdilution, Mueller-Hinton broth, 2–5 10^5 CFU/ml, 18 h at 37°C, read visually, at least three repeats (n = 3), read-out: MIC PA 910

| Molecule | MIC (MDR P. aeruginosa PA 919) [µM] | MIC (MDR P. aeruginosa PA 927) [µM] | MIC (MDR P. aeruginosa PA 923) [µM] | MIC (P. aeruginosa PA01-wt) [µM] | MIC (MDR P. aeruginosa PA253) [µM] | MIC (MDR P. aeruginosa PA 919; Pseudomonas aeruginosa) [µM] | MIC (MDR P. aeruginosa PA 927; Pseudomonas aeruginosa) [µM] | MIC (MDR P. aeruginosa PA 923; Pseudomonas aeruginosa) [µM] | MIC (MDR P. aeruginosa PA 915; Pseudomonas aeruginosa) [µM] | MIC (P. aeruginosa PA01-wt; Pseudomonas aeruginosa, PA01WT) [µM] | MIC (MDR P. aeruginosa PA253; Pseudomonas aeruginosa) [µM] | MIC (MDR P. aeruginosa PA 910; [2]) [µM] | MIC (MDR P. aeruginosa PA 910; [3]) [µM] | other results |
| --- | --- | --- | --- | --- | --- | --- | --- | --- | --- | --- | --- | --- | --- | --- |
| CC[C@H](C)[C@H](NC(=O)[C@H](CCCNC(=N)N)NC(=O)[C@H](C)NC(=O)[C@H](CC(C)C)NC(=O)[C@@H](N)CCCNC(=N)N)C(=O)N[C@H](C(=O)N[C@H](C(=O)N[C@H](C(=O)N[C@@H](CCCNC(=N)N)C(=O)N[C@H](C(=O)N[C@@H](CCCNC(=N)N)C(=O)N[C@@H](CCCNC(=N)N)C(N)=O)C(C)C)[C@@H](C)CC)C(C)C)C(C)C [Peptide R11] (H-RLARIVVIRVRR-NH2) |  |  |  |  |  |  |  |  |  |  |  |  |  | FIC against polymyxin B, MDR-PA253 (MDR-PA253): 0.56; FIC against polymyxin B, MDR-PA919 (MDR-PA919): 0.56; FIC mean (SD), combination with KAN ([1]; confirmation study, peptide + kanamycin, Indopt versions 1/8 MHb, mean of at least three measurements (n = 3), SD in brackets): 0.75 (0.17); FIC mean (SD), combination with TET ([1]; confirmation study, peptide + tetracycline, Indopt versions 1/8 MHb, mean of at least three measurements (n = 3), SD in brackets): 0.43 (0.12); FIC, combination with AMI ([1]; peptide + amikacin, for the Indopt versions 1/8 MHb, 2–5 × 10^5 CFU/ml, 37°C, 18 h, visual, determined once (n = 1)): 2; FIC, combination with CEF ([1]; peptide + cefepime, for the Indopt versions 1/8 MHb, 2–5 × 10^5 CFU/ml, 37°C, 18 h, visual, determined once (n = 1)): 2; FIC, combination with CET ([1]; peptide + ceftazidime, for the Indopt versions 1/8 MHb, 2–5 × 10^5 CFU/ml, 37°C, 18 h, visual, determined once (n = 1)): 1; FIC, combination with CIP ([1]; peptide + ciprofloxacin, for the Indopt versions 1/8 MHb, 2–5 × 10^5 CFU/ml, 37°C, 18 h, visual, determined once (n = 1)): 0.53; FIC, combination with ERY ([1]; peptide + erythromycin, for the Indopt versions 1/8 MHb, 2–5 × 10^5 CFU/ml, 37°C, 18 h, visual, determined once (n = 1)): 0.53; FIC, combination with IMI ([1]; peptide + imipenem, for the Indopt versions 1/8 MHb, 2–5 × 10^5 CFU/ml, 37°C, 18 h, visual, determined once (n = 1)): 0.63; FIC, combination with KAN ([1]; peptide + kanamycin, for the Indopt versions 1/8 MHb, 2–5 × 10^5 CFU/ml, 37°C, 18 h, visual, determined once (n = 1)): 0.5; FIC, combination with MER ([1]; peptide + meropenem, for the Indopt versions 1/8 MHb, 2–5 × 10^5 CFU/ml, 37°C, 18 h, visual, determined once (n = 1)): 0.51; FIC, combination with PIP ([1]; peptide + piperacillin, for the Indopt versions 1/8 MHb, 2–5 × 10^5 CFU/ml, 37°C, 18 h, visual, determined once (n = 1)): 1; FIC, combination with PMB ([1]; peptide + polymyxin B, for the Indopt versions 1/8 MHb, 2–5 × 10^5 CFU/ml, 37°C, 18 h, visual, determined once (n = 1)): 0.63; FIC, combination with TET ([1]; peptide + tetracycline, for the Indopt versions 1/8 MHb, 2–5 × 10^5 CFU/ml, 37°C, 18 h, visual, determined once (n = 1)): 0.53; FIC, combination with TOB ([1]; peptide + tobramycin, for the Indopt versions 1/8 MHb, 2–5 × 10^5 CFU/ml, 37°C, 18 h, visual, determined once (n = 1)): 2; MIC against MDR isolates of PA, PA919 (MDR P. aeruginosa PA 919; short AMPs, triplicate (n = 3)): 32 µM; MIC against PA01 wt (P. aeruginosa PA01-wt; short AMPs, triplicate (n = 3)): 16 µM (≈ 24.1 µg/mL); MIC against MDR isolates of PA, PA253 (MDR P. aeruginosa PA253; short AMPs, triplicate (n = 3)): 64 µM; MIC against PA910 in μM (peptides, Table 4) (MDR P. aeruginosa PA 910; peptide alone, as listed in the FIC table): 64 µM |
| CC[C@H](C)CCCCC(=O)N[C@@H](CCN)C(=O)N[C@H](C(=O)N[C@@H](CCN)C(=O)N[C@H]1CCNC(=O)[C@H]([C@@H](C)O)NC(=O)[C@H](CCN)NC(=O)[C@H](CCN)NC(=O)[C@H](CC(C)C)NC(=O)[C@@H](Cc2ccccc2)NC(=O)[C@H](CCN)NC1=O)[C@@H](C)O [Polymyxin B] (X1-[Dab]T[Dab][Dab][Dab][dF]L[Dab][Dab]T; lactam 4-C (inferred); N-terminus assumed) | 0.125 (≈ 0.15 µg/mL) | 0.25 (≈ 0.301 µg/mL) | 0.25 (≈ 0.301 µg/mL) | 0.125 (≈ 0.15 µg/mL) | 0.125 (≈ 0.15 µg/mL) |  |  |  |  |  |  |  |  | MIC (MDR P. aeruginosa PA 915): 0.25 µM (≈ 0.301 µg/mL); MIC (MDR P. aeruginosa PA 910; antibiotic alone, as listed in the FIC table, read-out: MIC against PA910 in μM (antibiotics, head of Table 4)): 0.13 µM; MIC (MDR P. aeruginosa PA 910; conventional antibiotics, microdilution, Mueller-Hinton broth, 2–5 10^5 CFU/ml, 18 h at 37°C, read visually, at least three repeats (n = 3), read-out: MIC PA 910): 0.125 µM (≈ 0.15 µg/mL) |
| CN(C)[C@@H]1C(O)=C(C(N)=O)C(=O)[C@@]2(O)C(O)=C3C(=O)c4c(O)cccc4[C@@](C)(O)[C@H]3C[C@@H]12 [Tetracyclin] |  |  |  |  |  | 32 (≈ 14.2 µg/mL) | 16 (≈ 7.11 µg/mL) | > 512 | 16 (≈ 7.11 µg/mL) | 8 (≈ 3.56 µg/mL) | 32 (≈ 14.2 µg/mL) | 64 | 64 (≈ 28.4 µg/mL) |  |
| NC[C@H]1O[C@H](O[C@H]2[C@H](O)[C@@H](O[C@H]3O[C@H](CO)[C@@H](O)[C@H](N)[C@H]3O)[C@H](N)C[C@@H]2N)[C@H](N)C[C@@H]1O [Tobramycin] |  |  |  |  |  | 64 (≈ 29.9 µg/mL) | 32 (≈ 15 µg/mL) | 32 (≈ 15 µg/mL) | 64 (≈ 29.9 µg/mL) | 0.25 to 0.5 (≈ 0.117 to 0.234 µg/mL) | 64 (≈ 29.9 µg/mL) | 32 | 32 (≈ 15 µg/mL) |  |
| Kanamycin | 128 | 128 | 256 | 64 | >512 |  |  |  |  |  |  |  |  | MIC PA 915 (MDR P. aeruginosa PA 915): 256 to 512 µM; MIC against PA910 in μM (antibiotics, head of Table 4) (MDR P. aeruginosa PA 910; antibiotic alone, as listed in the FIC table): 128 to 256 µM; MIC PA 910 (MDR P. aeruginosa PA 910; conventional antibiotics, microdilution, Mueller-Hinton broth, 2–5 10^5 CFU/ml, 18 h at 37°C, read visually, at least three repeats (n = 3)): 128 to 256 µM |
